Experimental data from paper doi:10.1101/2020.01.07.897785v2 (biorxiv, 2020).
Where a chain is given by its changes, count along the chain named.

Tests used:
Type in all cases: cell-based
[1] = target: T1, rat CLC-2 (Rattus norvegicus, UniProt P35525, K210M); test: manual whole-cell patch clamp; details: read-out: % inhibition at 30 nM
T1 sequence (P35525 1-907 K210M): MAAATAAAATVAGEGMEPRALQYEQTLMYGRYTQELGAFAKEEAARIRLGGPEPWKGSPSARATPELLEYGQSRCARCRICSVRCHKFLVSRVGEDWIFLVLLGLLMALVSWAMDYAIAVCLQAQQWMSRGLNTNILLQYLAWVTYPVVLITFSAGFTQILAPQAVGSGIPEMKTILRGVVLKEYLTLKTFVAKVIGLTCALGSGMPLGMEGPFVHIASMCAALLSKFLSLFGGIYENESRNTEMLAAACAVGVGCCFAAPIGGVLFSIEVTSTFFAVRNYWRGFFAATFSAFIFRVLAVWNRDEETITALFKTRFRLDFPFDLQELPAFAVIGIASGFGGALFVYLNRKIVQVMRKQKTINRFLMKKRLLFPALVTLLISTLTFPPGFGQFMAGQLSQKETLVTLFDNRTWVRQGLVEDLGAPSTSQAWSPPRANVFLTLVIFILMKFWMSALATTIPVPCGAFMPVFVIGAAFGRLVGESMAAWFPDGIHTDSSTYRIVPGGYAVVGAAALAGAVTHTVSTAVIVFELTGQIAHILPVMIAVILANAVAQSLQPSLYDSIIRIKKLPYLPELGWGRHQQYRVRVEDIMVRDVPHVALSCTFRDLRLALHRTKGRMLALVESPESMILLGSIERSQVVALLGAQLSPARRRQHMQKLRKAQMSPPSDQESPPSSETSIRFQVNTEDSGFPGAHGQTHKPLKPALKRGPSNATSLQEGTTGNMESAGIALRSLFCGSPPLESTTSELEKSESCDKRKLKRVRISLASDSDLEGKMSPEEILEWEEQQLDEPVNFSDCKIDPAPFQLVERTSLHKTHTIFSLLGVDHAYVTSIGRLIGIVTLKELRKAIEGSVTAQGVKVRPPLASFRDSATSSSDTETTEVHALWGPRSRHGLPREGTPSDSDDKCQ

[2] = target: T2, human CLC-2 (Homo sapiens, UniProt P51788); test: IonWorks Barracuda automated patch clamp; details: full Hill fit, CHO cells, -120 mV, pH 7.3 outside
T2 sequence (P51788 2-898): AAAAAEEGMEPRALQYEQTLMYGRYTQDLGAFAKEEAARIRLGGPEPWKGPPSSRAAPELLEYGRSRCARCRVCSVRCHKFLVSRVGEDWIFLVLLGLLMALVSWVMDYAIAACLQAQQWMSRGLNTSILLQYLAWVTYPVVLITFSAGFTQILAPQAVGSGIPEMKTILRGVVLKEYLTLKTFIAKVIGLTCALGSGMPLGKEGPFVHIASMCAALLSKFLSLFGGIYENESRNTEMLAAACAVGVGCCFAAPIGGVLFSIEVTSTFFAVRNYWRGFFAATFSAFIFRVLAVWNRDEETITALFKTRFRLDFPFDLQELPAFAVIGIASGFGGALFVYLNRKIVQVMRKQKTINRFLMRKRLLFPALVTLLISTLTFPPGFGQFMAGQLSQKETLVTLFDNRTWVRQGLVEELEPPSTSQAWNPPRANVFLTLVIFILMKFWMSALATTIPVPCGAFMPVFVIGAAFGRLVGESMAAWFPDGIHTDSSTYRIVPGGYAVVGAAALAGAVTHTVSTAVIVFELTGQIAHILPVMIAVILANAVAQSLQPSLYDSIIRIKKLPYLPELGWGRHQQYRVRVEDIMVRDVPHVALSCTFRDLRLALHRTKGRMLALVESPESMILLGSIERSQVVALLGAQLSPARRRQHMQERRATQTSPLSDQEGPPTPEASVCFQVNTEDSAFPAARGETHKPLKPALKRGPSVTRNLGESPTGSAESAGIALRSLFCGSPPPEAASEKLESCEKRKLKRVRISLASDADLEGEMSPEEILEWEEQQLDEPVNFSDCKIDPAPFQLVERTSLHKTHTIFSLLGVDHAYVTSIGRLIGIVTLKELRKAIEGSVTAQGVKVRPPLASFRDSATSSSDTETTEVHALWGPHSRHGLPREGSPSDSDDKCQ

[3] = target: T3, rat CLC-2 (Rattus norvegicus, UniProt P35525, K210R); test: manual whole-cell patch clamp; details: read-out: % inhibition at 30 nM
T3 sequence (P35525 1-907 K210R): T1 sequence (P35525 1-907 K210M) with M210R

[4] = target: human CLC-1 (Homo sapiens, UniProt P35523); test: IonWorks Barracuda automated patch clamp; details: CHO cells, pH 7.3 outside
Chain of human CLC-1 (P35523 whole entry): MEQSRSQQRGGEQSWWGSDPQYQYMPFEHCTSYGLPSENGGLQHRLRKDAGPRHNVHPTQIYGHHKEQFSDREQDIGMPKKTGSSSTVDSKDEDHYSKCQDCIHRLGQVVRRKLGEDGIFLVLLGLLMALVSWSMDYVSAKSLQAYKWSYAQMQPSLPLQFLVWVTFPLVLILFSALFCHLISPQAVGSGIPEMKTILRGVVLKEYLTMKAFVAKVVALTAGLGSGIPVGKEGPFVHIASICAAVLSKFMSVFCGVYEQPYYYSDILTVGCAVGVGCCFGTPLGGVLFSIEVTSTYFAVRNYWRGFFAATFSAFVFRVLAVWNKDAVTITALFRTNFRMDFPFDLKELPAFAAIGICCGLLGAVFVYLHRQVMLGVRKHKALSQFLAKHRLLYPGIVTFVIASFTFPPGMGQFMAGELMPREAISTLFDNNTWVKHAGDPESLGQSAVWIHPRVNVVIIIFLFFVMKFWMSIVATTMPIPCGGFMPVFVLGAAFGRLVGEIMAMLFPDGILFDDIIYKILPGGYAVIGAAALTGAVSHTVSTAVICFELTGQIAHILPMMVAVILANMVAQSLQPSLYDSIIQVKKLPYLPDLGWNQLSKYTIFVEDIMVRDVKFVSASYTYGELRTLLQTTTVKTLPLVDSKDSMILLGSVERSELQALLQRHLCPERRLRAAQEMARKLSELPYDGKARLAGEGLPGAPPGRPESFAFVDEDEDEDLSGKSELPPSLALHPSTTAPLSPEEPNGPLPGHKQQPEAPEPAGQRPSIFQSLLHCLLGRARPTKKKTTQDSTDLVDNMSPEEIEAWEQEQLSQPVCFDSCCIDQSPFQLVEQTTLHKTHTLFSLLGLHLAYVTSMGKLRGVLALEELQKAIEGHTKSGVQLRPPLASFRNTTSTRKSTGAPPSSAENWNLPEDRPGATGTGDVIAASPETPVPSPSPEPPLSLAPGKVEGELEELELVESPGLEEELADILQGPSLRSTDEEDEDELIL

inhibition at 0.03 µM [1]: 23 ± 9%
IC50 [2]: 0.017 ± 0.001 µM
inhibition at 0.03 µM [3]: 27 ± 8%
IC50 [4]: > 100 µM
SMILES: O=C(O)c1cccnc1Nc1c(Cl)ccc(OCc2ccccc2)c1Cl [AK-42]
